Results as given in paper PMC8307506, “Identification of Dihydromyricetin and Metabolites in Serum and Brain Associated with Acute Anti-Ethanol Intoxicating Effects in Mice” (International Journal of Molecular Sciences, 2021).
Where two headings read alike, the source gives them in different places.

Legend:
[1] = design: method as in PMID 28534405; conditions: Sprague Dawley rats, 100 mg/kg PO; cited from earlier work
[2] = system: P-glycoprotein (Pgp) efflux transporters; design: method as in PMID 33810134, PMID 25985195; conditions: cited from earlier work
[3] = Serum pharmacokinetics of DHM after PO and IP administration; type: in vivo, mice; conditions: for Tmax / half-life / Cmax / AUC(0-t): C57BL/6J, mouse, serum; for half-life: read-out: Serum T1/2 (converted); for IP AUC0→24 relative to PO AUC0→24: DHM 50 mg/kg; for Cmax / AUC(0-t): 50 mg/kg; for AUC(0-t): read-out: Serum AUC0→24
Experimental: Eight-week-old male and female C57BL/6J mice (Jackson’s Laboratories, Bar Harbor, ME, USA) were housed 4 mice to a cage (separated by sex) and maintained on 12-h light, 12-h dark cycles (lights on at 0700 h) in the animal facility at the Department of Animal Sciences, Rutgers University. Following 1-week acclimation, animals were given ad libitum access to water and a polyphenol-free diet (PFD; 3.82 kcal/g, 10% fat, 20% protein, 70% carbohydrate; D12450H; Research Diets, Inc., New Brunswick, NJ, USA) for at least 10 days. For PK studies, after an overnight fast, mice were administered 50 mg/kg DHM (dissolved in 0.9% saline with 10% DMSO) by either IP injection or oral gavage. Oral gavage was performed using single-use, sterile plastic feeding tubes for mice (20 ga × 30 mm; cat# FTP-20-30, Instech Laboratories, (Plymouth Meeting, PA, USA). Mice were deeply anesthetized with 5% isoflurane mixed with oxygen, and blood was collected by cardiac puncture. Following cardiac puncture, animals were exsanguinated and transcardial perfusion with 0.9% saline was performed to ensure blood removal from the brain tissue. Blood and brain samples were collected from a total of 85 mice at 0.25, 0.75, 1.5, 3, 6, 12, 24 h (3–4 mice for each sex and timepoint). Tissues were immediately homogenized with 0.2% formic acid at 1:2 (w/v), and frozen at −80 °C until analysis. Blood was centrifuged at 3000× g for 10 min at 4 °C to isolate serum. For efficacy studies, mice (n = 8/sex) were fasted at 5 h prior to Ethanol gavage 5 g/kg (37% Ethanol in water). DHM 50 mg/kg IP (dissolved in 0.9% saline with 10% DMSO) was administered at 0, 15, 45, 90 and 180 min prior to Ethanol oral gavage. Each mouse was tested at each time point 7 days apart over 6-week period. At the time of Ethanol gavage, mice were placed in oversized conical holders (L: 152 mm X W: 37 mm) and observed for ability to return upright upon being placed in a supine position. Duration of LORR was determined by ability to return upright 3 times within 30 s. To determine whether ethanol-induced tolerance developed, one week (Week 1; Baseline) prior to the 6-week repeated DHM dosing study all mice were oral dose with ethanol (5 g/kg) without any IP injection and LORR was measured. Mice were then re-tested in a similar fashion with oral ethanol 1 week after the DHM 6-week period (Week 8; Post). […] All animal studies were approved by the Institutional Animal Care and Use Committee of Rutgers University (Bello; PROTO999900014, OLAW #A3262-01, 15 March 2017) and complied with NIH Guide for the Care and Use of Laboratory Animals.
All serum samples were stored at −80 °C and conditioned to room temperature prior to analysis. An aliquot of 100 µL of serum, 20 µL 4M HCl, and 50 µL of internal standard (IS) solution (417 ng/mL isoquercetin in EtOAc) were combined in an Eppendorf tube. An aliquot of 500 µL of EtOAc was added and samples were vortexed for 30 s. Samples were then centrifuged at 3000× g for 2 min and the supernatant transferred to a glass vial. Samples were extracted 2 more times with EtOAc and the supernatant added to the corresponding vial containing 10 µL of 2% ascorbic acid in methanol (MeOH). Samples were then dried under vacuum, reconstituted with 100 µL of 45% MeOH in water with 0.1% formic acid (FA), centrifuged at 16,000× g for 10 min and transferred to an HPLC vial for analysis.
An Agilent 1290 Infinity II UPLC system interfaced with an Agilent 6470 Triple Quadrupole Mass Spectrometer with an electrospray ionization source (Agilent Technology, Palo Alto, CA, USA) was used for sample analysis. An Waters Acquity UPLC BEH C8 column (2.1 × 150 mm, 1.7 μm) (Milford, MA, USA) column with a VanGuard Acquity C8 guard column (2.1 × 5 mm, 1.7 μm) (Milford, MA, USA) was used for chromatographic separation. The binary mobile phases consisted of water with 0.1% FA (phase A) and acetonitrile (ACN) with 0.1% formic acid (phase B). The flow rate was set at 0.450 mL/min. […]

[4] = system: C57BL/6J mice; test: Ethanol-induced loss of righting reflex (LORR); type: in vivo
Experimental: Eight-week-old male and female C57BL/6J mice (Jackson’s Laboratories, Bar Harbor, ME, USA) were housed 4 mice to a cage (separated by sex) and maintained on 12-h light, 12-h dark cycles (lights on at 0700 h) in the animal facility at the Department of Animal Sciences, Rutgers University. Following 1-week acclimation, animals were given ad libitum access to water and a polyphenol-free diet (PFD; 3.82 kcal/g, 10% fat, 20% protein, 70% carbohydrate; D12450H; Research Diets, Inc., New Brunswick, NJ, USA) for at least 10 days. For PK studies, after an overnight fast, mice were administered 50 mg/kg DHM (dissolved in 0.9% saline with 10% DMSO) by either IP injection or oral gavage. […] Duration of LORR was determined by ability to return upright 3 times within 30 s. To determine whether ethanol-induced tolerance developed, one week (Week 1; Baseline) prior to the 6-week repeated DHM dosing study all mice were oral dose with ethanol (5 g/kg) without any IP injection and LORR was measured. […]
Pharmacokinetic parameters were calculated using noncompartmental analysis. Elimination half-life (T1/2) was calculated with R software from the linear regression of the terminal phase of the log serum concentration-time curve. The AUC0→24 was calculated with OriginLab software by trapezoidal analysis of the serum concentration-time plot. Cmax and Tmax were determined directly from observed data. Data are expressed as mean ± SEM. Statistical significance between AUC0→24 among test groups was calculated with an independent t-test (GraphPad software, San Diego, CA, USA). Time to LORR was analyzed by repeated measured ANOVA. Tolerance was determined by mean split in LORR response and confirmed with paired t-test (Week 1 vs. Week 8). Statistical significance of serum concentrations for individual time points was calculated using a two-way analysis of variance (ANOVA) analysis. […] Statistical significance of electrophysiology results compound GABAergic modulation was determined using a paired t-test (Vehicle control vs. Compound, GraphPad software, San Diego CA, USA). p < 0.05 was considered significant.

[5] = female, ip, female mice, DHM 50 mg/kg IP
[6] = female, ip, female mice, DHM 50 mg/kg IP, mean ± SEM
[7] = female, po, female mice, DHM 50 mg/kg PO
[8] = female, po, female mice, DHM 50 mg/kg PO, mean ± SEM
[9] = male, ip, male mice, DHM 50 mg/kg IP
[10] = male, ip, male mice, DHM 50 mg/kg IP, mean ± SEM
[11] = male, po, male mice, DHM 50 mg/kg PO
[12] = male, po, male mice, DHM 50 mg/kg PO, mean ± SEM

Tmax ([3]; female mice, DHM 50 mg/kg IP): 15 min
half-life ([3]; female mice, DHM 50 mg/kg IP): 45.6 min
Tmax ([3]; female mice, DHM 50 mg/kg PO): 15 min
half-life ([3]; female mice, DHM 50 mg/kg PO): 110 min
Tmax ([3]; male mice, DHM 50 mg/kg IP): 15 min
half-life ([3]; male mice, DHM 50 mg/kg IP): 95.4 min
Tmax ([3]; male mice, DHM 50 mg/kg PO): 15 min
half-life ([3]; male mice, DHM 50 mg/kg PO): 115 min
PO exposure levels in male mice relative to female mice ([3]; DHM 50 mg/kg PO): 3.5 times
IP AUC0→24 relative to PO AUC0→24 ([3]; female mice): 23.8 fold
Serum AUC0→24 ([3]; female mice, DHM 50 mg/kg PO): 0.7 µM·h
IP AUC0→24 relative to PO AUC0→24 ([3]; female mice, listed as dihydromyricetin): 7.2 fold
Cmax [3, 5]: 23.8 µM
Cmax [3, 6]: 23.8 µM
AUC(0-t) [3, 6]: 17.4 µM·h
AUC(0-t) [3, 5]: 17.3 µM·h
Cmax [3, 7]: 0.62 µM
Cmax [3, 8]: 0.623 ± 0.159 µM
AUC(0-t) [3, 8]: 0.728 ± 0.461 µM·h
AUC(0-t) [3, 7]: 0.728 µM·h
IP AUC0→24 relative to PO AUC0→24 ([3]; male mice): 7.2 fold
Serum AUC0→24 ([3]; male mice, DHM 50 mg/kg PO): 2.5 µM·h
IP AUC0→24 relative to PO AUC0→24 ([3]; male mice, listed as dihydromyricetin): 23.8 fold
Cmax [3, 9]: 38.3 µM
Cmax [3, 10]: 38.3 µM
AUC(0-t) [3, 10]: 18.1 µM·h
AUC(0-t) [3, 9]: 18.1 µM·h
Cmax [3, 11]: 1.9 µM
Cmax [3, 12]: 1.89 ± 0.59 µM
AUC(0-t) [3, 12]: 2.51 ± 0.988 µM·h
AUC(0-t) [3, 11]: 2.51 µM·h
Compound: O=C1c2c(O)cc(O)cc2O[C@H](c2cc(O)c(O)c(O)c2)[C@H]1O [DHM, Dihydromyricetin]
time DHM detected in brain tissue post administration [1]: up to 12 h
Pgp interaction [2]: Pgp substate and inhibitor
ethanol-induced loss of righting reflex ([4]; C57BL/6J mice, DHM 50 mg/kg IP 0 or 15 min prior to ethanol PO 5 g/kg): significantly reduced
LORR compared with vehicle treated mice ([4]; female mice, DHM 50 mg/kg IP at time 0 and 45 min before oral ethanol 5 g/kg, p < 0.05): reducing LORR
LORR ([4]; responsive mice (5 males/3 females), DHM 50 mg/kg IP at time 0 and 15 min prior to ethanol PO, p < 0.05): demonstrated a reduction in LORR
